Tests used:
Format in all cases: in vivo
[1] = system: Pigweed, Palmer (palmer amaranth, palmer pigweed, Amaranthus palmeri); experiment: Test A1 preemergence, Pigweed, Palmer
Source text: (§1) Seeds of plant species selected from, blackgrass (Alopecurus myosuroides), corn (Zea mays), Foxtail, Giant (giant foxtail, Setaria faberi), goosegrass (Eleusine indica), kochia (Bassia scoparia), Oat, Wild (wild oat, Avena fatua), Pigweed, Palmer (palmer amaranth, palmer pigweed, Amaranthus palmeri), ragweed (common ragweed, Ambrosia artemisiifolia), Ryegrass, Italian (Italian ryegrass, Lolium multiflorum), soybean (Glycine max), and wheat (Triticum aestivum) were planted into a blend of loam soil and sand and treated preemergence with a directed soil spray using test chemicals formulated in a non-phytotoxic solvent mixture which included a surfactant. At the same time, plants selected from these crop and weed species and also galium (catchweed bedstraw, Galium aparine) and horseweed (Erigeron canadensis) were planted in pots containing the same blend of loam soil and sand and treated with postemergence applications of test chemicals formulated in the same manner. Plants ranged in height from 2 to 10 cm and were in the one- to two-leaf stage for the postemergence treatment. […] A dash (-) response means no test result.

[2] = system: ragweed (common ragweed, Ambrosia artemisiifolia); experiment: Test A1 postemergence, ragweed; conditions: for Plant response rating, Ragweed: Postemergence
Source text: as §1

rice (Oryza sativa) = experiment: Test B1 flooded paddy test, rice; conditions: 250 g ai/ha, Flood, applied to paddy water, 2-leaf stage, visually evaluated after 10 to 14 days
Source text: (§2) A dash (-) response means no test result.

[3] = system: ducksalad (Heteranthera limosa); experiment: Test B1 flooded paddy test, ducksalad; conditions: 250 g ai/ha, Flood, applied to paddy water, 2-leaf stage, visually evaluated after 10 to 14 days
Source text: as §2

[4] = system: blackgrass (Alopecurus myosuroides); experiment: Test A1 preemergence, blackgrass
Source text: as §1

corn (Zea mays) [5] = experiment: Test A1 postemergence, corn; conditions: for Plant response rating, Corn: Postemergence
Source text: as §1

[6] = system: galium (catchweed bedstraw, Galium aparine); experiment: Test A1 postemergence, galium; conditions: for Plant response rating, Galium: Postemergence
Source text: as §1

[7] = system: Ryegrass, Italian (Italian ryegrass, Lolium multiflorum); experiment: Test A1 postemergence, Ryegrass, Italian; conditions: for Plant response rating, Ryegrass, Italian: Postemergence
Source text: as §1

[8] = system: wheat (Triticum aestivum); experiment: Test A1 preemergence, wheat
Source text: as §1

corn (Zea mays) [9] = experiment: Test A1 preemergence, corn
Source text: as §1

soybean (Glycine max) [10] = experiment: Test A1 postemergence, soybean; conditions: for Plant response rating, Soybean: Postemergence
Source text: as §1

[11] = system: Oat, Wild (wild oat, Avena fatua); experiment: Test A1 preemergence, Oat, Wild
Source text: as §1

soybean (Glycine max) [12] = experiment: Test A1 preemergence, soybean
Source text: as §1

[13] = system: Oat, Wild (wild oat, Avena fatua); experiment: Test A1 postemergence, Oat, Wild; conditions: for Plant response rating, Oat, Wild: Postemergence
Source text: as §1

[14] = system: wheat (Triticum aestivum); experiment: Test A1 postemergence, wheat; conditions: for Plant response rating, Wheat: Postemergence
Source text: as §1

[15] = system: ragweed (common ragweed, Ambrosia artemisiifolia); experiment: Test A1 preemergence, ragweed
Source text: as §1

[16] = system: barnyardgrass (Echinochloa crus-galli); experiment: Test B1 flooded paddy test, barnyardgrass; conditions: 250 g ai/ha, Flood, applied to paddy water, 2-leaf stage, visually evaluated after 10 to 14 days
Source text: as §2

kochia (Bassia scoparia) [17] = experiment: Test A1 preemergence, kochia
Source text: as §1

kochia (Bassia scoparia) [18] = experiment: Test A1 postemergence, kochia; conditions: for Plant response rating, Kochia: Postemergence
Source text: as §1

[19] = system: Pigweed, Palmer (palmer amaranth, palmer pigweed, Amaranthus palmeri); experiment: Test A1 postemergence, Pigweed, Palmer; conditions: for Plant response rating, Pigweed, Palmer: Postemergence
Source text: as §1

[20] = system: horseweed (Erigeron canadensis); experiment: Test A1 postemergence, horseweed; conditions: for Plant response rating, Horseweed: Postemergence
Source text: as §1

[21] = system: goosegrass (Eleusine indica); experiment: Test A1 preemergence, goosegrass
Source text: as §1

[22] = system: goosegrass (Eleusine indica); experiment: Test A1 postemergence, goosegrass; conditions: for Plant response rating, Goosegrass: Postemergence
Source text: as §1

[23] = system: Ryegrass, Italian (Italian ryegrass, Lolium multiflorum); experiment: Test A1 preemergence, Ryegrass, Italian
Source text: as §1

[24] = system: blackgrass (Alopecurus myosuroides); experiment: Test A1 postemergence, blackgrass; conditions: 0 to 100 scale (0 no effect, 100 complete control); for Plant response rating, Blackgrass: Postemergence
Source text: as §1

[25] = system: Foxtail, Giant (giant foxtail, Setaria faberi); experiment: Test A1 postemergence, Foxtail, Giant; conditions: for Plant response rating, Foxtail, Giant: Postemergence
Source text: as §1

[26] = system: Foxtail, Giant (giant foxtail, Setaria faberi); experiment: Test A1 preemergence, Foxtail, Giant
Source text: as §1

[27] = 31 g ai/ha, 0 to 100 scale (0 no effect, 100 complete control)
[28] = 125 g ai/ha, 0 to 100 scale, 0 no effect, 100 complete control
[29] = 31 g ai/ha, 0 to 100 scale (0 no effect, 100 complete control), 10 days
[30] = 31 g ai/ha, postemergence, 0 to 100 scale (0 no effect, 100 complete control)
[31] = 125 g ai/ha, 0 to 100 scale (0 no effect, 100 complete control), 10 days

## Cc1c(NS(=O)(=O)C(F)(F)F)cc(C(=O)N2CCOCC2)c(C)c1Cl [Compound 290]
[1]; [27]
  Plant response rating, Pigweed, Palmer: 0
[1]; [28]
  Plant response rating, Pigweed, Palmer: 50
[2]; [29]
  Plant response rating, Ragweed: 60
[2]; 125 g ai/ha, 0 to 100 scale
  Plant response rating, Ragweed: 70
Rice (Oryza sativa)
  Plant response rating, Rice (0 to 100 scale, 0 is no effect, 100 is complete control): 0
[3]
  Plant response rating, Ducksalad (0 to 100 scale, 0 is no effect, 100 is complete control): 65
[4]; [27]
  Plant response rating, Blackgrass: 20
[4]; [28]
  Plant response rating, Blackgrass: 70
Corn (Zea mays) [5]; [29]
  Plant response rating, Corn: 0
Corn (Zea mays) [5]; 125 g ai/ha, 0 to 100 scale
  Plant response rating, Corn: 20
[6]; [29]
  Plant response rating, Galium: 80
[6]; 125 g ai/ha, 0 to 100 scale
  Plant response rating, Galium: 90
[7]; [29]
  Plant response rating, Ryegrass, Italian: 0
[7]; 125 g ai/ha, 0 to 100 scale
  Plant response rating, Ryegrass, Italian: 50
[8]; [27]
  Plant response rating, Wheat: 0
[8]; [28]
  Plant response rating, Wheat: 40
Corn (Zea mays) [9]; [27]
  Plant response rating, Corn: 0
Corn (Zea mays) [9]; [28]
  Plant response rating, Corn: 20
Soybean (Glycine max) [10]; [29]
  Plant response rating, Soybean: 0
Soybean (Glycine max) [10]; 125 g ai/ha, 0 to 100 scale
  Plant response rating, Soybean: 20
[11]; [27]
  Plant response rating, Oat, Wild: 0
[11]; [28]
  Plant response rating, Oat, Wild: 20
Soybean (Glycine max) [12]; [27]
  Plant response rating, Soybean: 0
Soybean (Glycine max) [12]; [28]
  Plant response rating, Soybean: 0
[13]; [29]
  Plant response rating, Oat, Wild: 0
[13]; 125 g ai/ha, 0 to 100 scale
  Plant response rating, Oat, Wild: 10
[14]; [29]
  Plant response rating, Wheat: 0
[14]; 125 g ai/ha, 0 to 100 scale
  Plant response rating, Wheat: 60
[15]; [27]
  Plant response rating, Ragweed: 20
[15]; [28]
  Plant response rating, Ragweed: 60
[16]
  Plant response rating, Barnyardgrass (0 to 100 scale, 0 is no effect, 100 is complete control): 0
Kochia (Bassia scoparia) [17]; [27]
  Plant response rating, Kochia: 20
Kochia (Bassia scoparia) [17]; [28]
  Plant response rating, Kochia: 30
Kochia (Bassia scoparia) [18]; [29]
  Plant response rating, Kochia: 20
Kochia (Bassia scoparia) [18]; 125 g ai/ha, 0 to 100 scale
  Plant response rating, Kochia: 20
[19]; [29]
  Plant response rating, Pigweed, Palmer: 0
[19]; 125 g ai/ha, 0 to 100 scale
  Plant response rating, Pigweed, Palmer: 20
[20]; [29]
  Plant response rating, Horseweed: 70
[20]; 125 g ai/ha, 0 to 100 scale
  Plant response rating, Horseweed: 90
[21]; [27]
  Plant response rating, Goosegrass: 70
[21]; [28]
  Plant response rating, Goosegrass: 90
[22]; [29]
  Plant response rating, Goosegrass: 30
[22]; 125 g ai/ha, 0 to 100 scale
  Plant response rating, Goosegrass: 70
[23]; [27]
  Plant response rating, Ryegrass, Italian: 30
[23]; [28]
  Plant response rating, Ryegrass, Italian: 60
[24]; 31 g ai/ha, 10 days
  Plant response rating, Blackgrass: 0
[24]; 125 g ai/ha
  Plant response rating, Blackgrass: 0
[25]; [29]
  Plant response rating, Foxtail, Giant: 0
[25]; 125 g ai/ha, 0 to 100 scale
  Plant response rating, Foxtail, Giant: 70
[26]; [27]
  Plant response rating, Foxtail, Giant: 0
[26]; [28]
  Plant response rating, Foxtail, Giant: 90

## Cc1cc(C)c(N(COC(=O)C(C)(C)C)S(=O)(=O)C(F)(F)F)cc1N1CCC2(CCC(C(F)(F)F)CC2)C1=O (stereo not drawn) [Compound 403]
[1]; [27]
  Plant response rating, Pigweed, Palmer: 0
[1]; [28]
  Plant response rating, Pigweed, Palmer: 0
[2]; [30]
  Ragweed plant response rating: 0
[2]; [31]
  Plant response rating, Ragweed: 50
Rice (Oryza sativa)
  Plant response rating, Rice (0 to 100 scale, 0 is no effect, 100 is complete control): 0
[3]
  Plant response rating, Ducksalad (0 to 100 scale, 0 is no effect, 100 is complete control): 15
[4]; [27]
  Plant response rating, Blackgrass: 0
[4]; [28]
  Plant response rating, Blackgrass: 0
Corn (Zea mays) [5]; [30]
  Corn plant response rating: 0
Corn (Zea mays) [5]; [31]
  Plant response rating, Corn: 0
[6]; [30]
  Galium plant response rating: 70
[6]; [31]
  Plant response rating, Galium: 100
[7]; [30]
  Ryegrass, Italian plant response rating: 0
[7]; [31]
  Plant response rating, Ryegrass, Italian: 0
[8]; [27]
  Plant response rating, Wheat: 0
[8]; [28]
  Plant response rating, Wheat: 0
Corn (Zea mays) [9]; [27]
  Plant response rating, Corn: 0
Corn (Zea mays) [9]; [28]
  Plant response rating, Corn: 10
Soybean (Glycine max) [10]; [30]
  Soybean plant response rating: 50
Soybean (Glycine max) [10]; [31]
  Plant response rating, Soybean: 60
[11]; [27]
  Plant response rating, Oat, Wild: 0
[11]; [28]
  Plant response rating, Oat, Wild: 10
Soybean (Glycine max) [12]; [27]
  Plant response rating, Soybean: 0
Soybean (Glycine max) [12]; [28]
  Plant response rating, Soybean: 0
[13]; [30]
  Oat, Wild plant response rating: 0
[13]; [31]
  Plant response rating, Oat, Wild: 30
[14]; [30]
  Wheat plant response rating: 0
[14]; [31]
  Plant response rating, Wheat: 0
[15]; [27]
  Plant response rating, Ragweed: 0
[15]; [28]
  Plant response rating, Ragweed: 20
[16]
  Plant response rating, Barnyardgrass (0 to 100 scale, 0 is no effect, 100 is complete control): 0
Kochia (Bassia scoparia) [17]; [27]
  Plant response rating, Kochia: 0
Kochia (Bassia scoparia) [17]; [28]
  Plant response rating, Kochia: 0
Kochia (Bassia scoparia) [18]; [30]
  Kochia plant response rating: 10
Kochia (Bassia scoparia) [18]; [31]
  Plant response rating, Kochia: 40
[19]; [30]
  Pigweed, Palmer plant response rating: 0
[19]; [31]
  Plant response rating, Pigweed, Palmer: 30
[20]; [30]
  Horseweed plant response rating: 0
[20]; [31]
  Plant response rating, Horseweed: 30
[21]; [27]
  Plant response rating, Goosegrass: 0
[21]; [28]
  Plant response rating, Goosegrass: 0
[22]; [30]
  Goosegrass plant response rating: 0
[22]; [31]
  Plant response rating, Goosegrass: 50
[23]; [27]
  Plant response rating, Ryegrass, Italian: 30
[23]; [28]
  Plant response rating, Ryegrass, Italian: 30
[24]; 31 g ai/ha, postemergence
  Blackgrass plant response rating: 0
[24]; 125 g ai/ha, 10 days
  Plant response rating, Blackgrass: 0
[25]; [30]
  Foxtail, Giant plant response rating: 0
[25]; [31]
  Plant response rating, Foxtail, Giant: 0
[26]; [27]
  Plant response rating, Foxtail, Giant: 0
[26]; [28]
  Plant response rating, Foxtail, Giant: 10
